For the data set, the system named is rodent carcinogenicity bioassays, tumor incidence. The experiment in a line: CCRIS carcinogenicity studies. Summed up:
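Archive of carcinogenicity, mutagenicity, tumor promotion and tumor inhibition results drawn from journals, NCI reports and other sources, expert-reviewed; covers 1985-2011 and is no longer updated.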

Molecules are shown by their SMILES. Active and inactive are the calls of the source. The rule behind the calls is not given here.

`NC=O`: the carcinogen call by setting is: (Species: Mouse, Strain/Sex: B5C3F1/Female, Route: Oral, Dose: 0, 20, 40, 80 mg/kg in deioninzed water, by gavage, 5 d/wk for 104-105 wk, Tumor Site: Type of Lesion: Liver: hepatocellular adenoma and carcinoma (combined)) “active; positive, authors described results as equivocal evidence of carcinogenic activi”; (Species: Mouse, Strain/Sex: B6C3F1/Male, Route: Oral, Dose: 0, 20, 40, 80 mg/kg in deioninzed water, by gavage, 5 d/wk for 104-105 wk, Tumor Site: Type of Lesion: Liver: hemangiosarcoma) “active; positive, authors described results as clear evidence of carcinogenic activity”; (Species: Rat, Strain/Sex: F344/N/Female, Route: Oral, Dose: 0, 20, 40, 80 mg/kg in deioninzed water, by gavage, 5 d/wk for 104-105 wk) “inactive; negative”; (Species: Rat, Strain/Sex: F344/N/Male, Route: Oral, Dose: 0, 20, 40, 80 mg/kg in deioninzed water, by gavage, 5 d/wk for 104-105 wk) “inactive; negative”.
Take `O=P1(N(CCCl)CCCl)NCCCO1` (centres undefined): the carcinogen call reads like this: (Species: FISH, Strain/Sex: SHASTA RAINBOW TROUT/MALE, FEMALE, Route: ORAL, Dose: 0, 200 PPM IN DIET FOR 18 MO (STUDY DURATION: 18 MO)) “inactive; negative”; (Species: HUMAN, Route: ORAL, Tumor Site: Type of Lesion: URINARY BLADDER) “active; positive”; (Species: MOUSE, Strain/Sex: NMRI/FEMALE, Route: SUBCUTANEOUS, Dose: 0, 13, 26 MG/KG IN SALINE 1/WK FOR LIFETIME (STUDY DURATION: LIFETIME), Dose: 0, 13, 26 MG/KG IN SALINE 1/WK FOR LIFETIME (STUDY DURATION: LIFETIME), Tumor Site: Type of Lesion: LYMPHATIC SYSTEM: MALIGNANT LEUKEMIA) “active; positive”; (Species: MOUSE, Strain/Sex: NMRI/FEMALE, Route: SUBCUTANEOUS, Dose: 26 MG/KG 1/WK FOR 52 WK, Tumor Site: Type of Lesion: MAMMARY GLAND: CARCINOMA, MULTIPLE SITES: CARCINOMA, SARCOMA) “active; positive”; (Species: RAT, Strain/Sex: BR46/MALE, Route: INTRAVENOUS, Dose: 15 MG/KG 1/WK OR 5 DOSES OF 33 MG/KG EVERY 2 WK, Tumor Site: Type of Lesion: MULTIPLE SITES) “active; positive”; (Species: RAT, Strain/Sex: SPRAGUE-DAWLEY/MALE,FEMALE, Route: ORAL, Dose: 0.31, 0.63, 1.25, 2.5 MG/KG 5/WK, Dose: 0.31, 0.63, 1.25, 2.5 MG/KG 5/WK, Tumor Site: Type of Lesion: URINARY BLADDER: PAPILLOMA, TRANSITIONAL CELL CARCINOMA) “active; positive”. The carcinogen call (Species: RAT, Strain/Sex: SPRAGUE-DAWLEY/MALE, Route: INTRAVENOUS, Dose: 13 MG/KG 1/WK, Tumor Site: Type of Lesion: MULTIPLE SITES) was “active; positive”.
On to `O=Nc1ccc(NO)cc1`, for which the carcinogen call is, setting by setting: (Species: MOUSE, Strain/Sex: B6C3F1/FEMALE, Route: ORAL, Dose: 0, 750, 1500 PPM IN DIET FOR 104 WK (STUDY DURATION: 105 WK), Dose: 0, 750, 1500 PPM IN DIET FOR 104 WK (STUDY DURATION: 105 WK)) “inactive; negative”; (Species: MOUSE, Strain/Sex: B6C3F1/MALE, Route: ORAL, Dose: 0, 750, 1500 PPM IN DIET FOR 104 WK (STUDY DURATION: 105 WK), Dose: 0, 750, 1500 PPM IN DIET FOR 104 WK (STUDY DURATION: 105 WK)) “inactive; negative”; (Species: RAT, Strain/Sex: F344/FEMALE, Route: ORAL, Dose: 0, 375, 750 PPM IN DIET FOR 104 WK (STUDY DURATION: 105 WK), Dose: 0, 375, 750 PPM IN DIET FOR 104 WK (STUDY DURATION: 105 WK), Tumor Site: Type of Lesion: URINARY BLADDER: TRANSITIONAL CELL CARCINOMA, TRANSITIONAL CELL PAPILLOMA OR SQUAMOUS CELL CARCINOMA) “active; positive”; (Species: RAT, Strain/Sex: F344/MALE, Route: ORAL, Dose: 0, 375, 750 PPM IN DIET FOR 104 WK (STUDY DURATION: 105 WK), Dose: 0, 375, 750 PPM IN DIET FOR 104 WK (STUDY DURATION: 105 WK)) “inactive; negative”.
As to `O=C1OC2(c3ccccc31)c1cc(Br)c(O)c(Br)c1Oc1c2cc(Br)c(O)c1Br`, the carcinogen call (Species: MOUSE, Strain/Sex: ICR/FEMALE, Route: DERMAL, Dose: 0, 1 MG IN 0.1 ML DISTILLED WATER 2/WK FOR A MEAN TOTAL DOSE OF 140.1 MG (STUDY DURATION: 18 MO)) is “inactive; negative” and the carcinogen call (Species: MOUSE, Strain/Sex: ICR/MALE, Route: DERMAL, Dose: 0, 1 MG IN 0.1 ML DISTILLED WATER 2/WK FOR A MEAN TOTAL DOSE OF 140.1 MG (STUDY DURATION: 18 MO)) was “inactive; negative”.
In the case of `O=C(NCC1CCCCN1)c1cc(OCC(F)(F)F)ccc1OCC(F)(F)F` (centres undefined), the carcinogen call by setting is: (Species: MOUSE, Strain/Sex: CD-1/MALE,FEMALE, Route: ORAL, Dose: 15, 30, 60 MG/KG/DAY IN DIET FOR 18 MO, Dose: 15, 30, 60 MG/KG/DAY IN DIET FOR 18 MO) “inactive; negative”; (Species: RAT, Strain/Sex: WISTAR/MALE,FEMALE, Route: ORAL, Dose: 15, 30, 60 MG/KG/DAY IN DIET FOR 24 MO, Dose: 15, 30, 60 MG/KG/DAY IN DIET FOR 24 MO) “inactive; negative”.
Take `CCCCCCCCN(C)N=O`: the carcinogen call was “active; positive” (Species: HAMSTER, Strain/Sex: SYRIAN/FEMALE, Route: GAVAGE, Dose: 0, 7.4 MG/KG 1/WK FOR 40 WK (TOTAL DOSE: 0; 2.1 MMOL) (STUDY DURATION: LIFETIME), Dose: 0, 7.4 MG/KG 1/WK FOR 40 WK (TOTAL DOSE: 0; 2.1 MMOL) (STUDY DURATION: LIFETIME), Tumor Site: Type of Lesion: LIVER: HEPATOCELLULAR ADENOMA, LUNG: ALVEOLAR/BRONCHIAL ADENOMA, NASAL MUCOSA: ADENOMA, URINARY BLADDER: SARCOMA, UNDIFF, Tumor Site: Type of Lesion: LIVER: HEPATOCELLULAR ADENOMA, LUNG: ALVEOLAR/BRONCHIAL ADENOMA, NASAL MUCOSA: ADENOMA, URINARY BLADDER: SARCOMA, UNDIFF); “active; positive” (Species: HAMSTER, Strain/Sex: SYRIAN/MALE, Route: GAVAGE, Dose: 0, 7.4 MG/KG 1/WK FOR 40 WK (TOTAL DOSE: 0; 2.1 MMOL) (STUDY DURATION: LIFETIME), Dose: 0, 7.4 MG/KG 1/WK FOR 40 WK (TOTAL DOSE: 0; 2.1 MMOL) (STUDY DURATION: LIFETIME), Tumor Site: Type of Lesion: LIVER: HEPATOCELLULAR ADENOMA, CHOLANGIOMA, HEMANGIOSARCOMA, LUNG: ALVEOLAR/ BRONCHIAL ADENOMA, NASAL MUCOSA: ADENOMA, U, Tumor Site: Type of Lesion: LIVER: HEPATOCELLULAR ADENOMA, CHOLANGIOMA, HEMANGIOSARCOMA, LUNG: ALVEOLAR/ BRONCHIAL ADENOMA, NASAL MUCOSA: ADENOMA, U); “active; positive” (Species: RAT, Strain/Sex: F344/MALE, Route: GAVAGE, Dose: 0, 93 MG/ML IN CORN OIL 2/WK FOR 30 WK, STUDY DURATION: 50 WK, Dose: 0, 93 MG/ML IN CORN OIL 2/WK FOR 30 WK, STUDY DURATION: 50 WK, Tumor Site: Type of Lesion: LUNG: ADENOCARCINOMA, ADENOMA, NASAL CAVITY: CARCINOMA, LIVER: HEPATOCELLULAR TUMOR, BLADDER, Tumor Site: Type of Lesion: LUNG: ADENOCARCINOMA, ADENOMA, NASAL CAVITY: CARCINOMA, LIVER: HEPATOCELLULAR TUMOR, BLADDER).
On to `CCn1c2ccccc2c2ccccc21`, for which the carcinogen call is “inactive; negative” (Species: MOUSE, Strain/Sex: CD-1/FEMALE, Route: INTRAPERITONEAL, Dose: 0, 1.75 UMOL/MOUSE (TOTAL DOSE) ADMINISTERED DURING DAYS 1, 8, AND 15 OF LIFE (STUDY DURATION: 52 WK)) and “inactive; negative” (Species: MOUSE, Strain/Sex: CD-1/MALE, Route: INTRAPERITONEAL, Dose: 0, 1.75 UMOL/MOUSE (TOTAL DOSE) ADMINISTERED DURING DAYS 1, 8, AND 15 OF LIFE (STUDY DURATION: 52 WK)).
Consider `Nc1nnc(-c2ccc([N+](=O)[O-])o2)s1`, for which, where the note is “Species: RAT, Route: ORAL, Tumor Site: Type of Lesion: MAMMARY GLAND”, the carcinogen call was “active; positive”.
As for `CCOP(=S)(OCC)SCCSCC`, the carcinogen call runs as follows: (Species: Mouse, Strain/Sex: CD/Female (60/Group with 10 used as replacements), Route: Oral, Dose: 0, 1, 4, 16 ppm 98.2% disulfoton in diet for 99 wks, study duration 99 wks, Dose: 0, 1, 4, 16 ppm 98.2% disulfoton in diet for 99 wks, study duration 99 wks) “inactive; negative”; (Species: Mouse, Strain/Sex: CD/Male (60/Group with 10 used as replacements), Route: Oral, Dose: 0, 1, 4, 16 ppm 98.2% disulfoton in diet for 99 wks, study duration 99 wks, Dose: 0, 1, 4, 16 ppm 98.2% disulfoton in diet for 99 wks, study duration 99 wks) “inactive; negative”; (Species: Rat, Strain/Sex: F344/Female (50/Group), Route: Oral, Dose: 0, 1, 4, 16 ppm 97.6% disulfoton in diet for 105 wks, study duration 105 wks, Dose: 0, 1, 4, 16 ppm 97.6% disulfoton in diet for 105 wks, study duration 105 wks) “inactive; negative”; (Species: Rat, Strain/Sex: F344/Male (50/Group), Route: Oral, Dose: 0, 1, 4, 16 ppm 97.6% disulfoton in diet for 105 wks, study duration 105 wks, Dose: 0, 1, 4, 16 ppm 97.6% disulfoton in diet for 105 wks, study duration 105 wks) “inactive; negative”.

The values above are taken from PubChem BioAssay AID1259411 (Chemical Carcinogenesis Research Information System (CCRIS), 2018).
